Test results published in patent US20230355597A1, “COMPOUNDS, COMPOSITIONS, AND METHODS FOR THE TREATMENT AND PREVENTION OF AVIAN PATHOGENIC E. COLI (APEC)” (OHIO STATE INNOVATION FOUNDATION, priority 2018, published 2023).

Columns and labels:
[1] = tested on: Caco-2 cells; assay: LDH assay of AI-2 inhibitors; conditions: Caco-2, 100 µM, 24 h
[2] = tested on: AI-2 activity of APEC O109; assay: AI-2 bioluminescence indicator assay (V. harveyi BB170); conditions: Escherichia coli, read-out: Inhibition % of AI-2 activity
[3] = tested on: AI-2 activity of APEC O8; assay: as above; conditions: Escherichia coli, read-out: Inhibition % of AI-2 activity, APEC O8, 100 µM
[4] = tested on: APEC O2 in HD-11 cells; assay: Intracellular survival assay (AI-2 inhibitors); conditions: O2, HD-11, 100 µM, 6 h
[5] = tested on: Rif^r APEC O78; assay: Wax moth (Galleria mellonella) larva infection model (AI-2 inhibitors); conditions: 48 h post treatment
[6] = tested on: AI-2 activity of APEC O78; assay: AI-2 bioluminescence indicator assay (V. harveyi BB170); conditions: Escherichia coli, read-out: Inhibition % of AI-2 activity
[7] = tested on: QS and virulence associated genes of APEC O78; assay: qRT-PCR of QS-regulated and virulence factors genes; assay type: cell-based, avian pathogenic Escherichia coli (APEC); conditions: 100 µM, 10 h
Experimental: Quantitative real-time reverse transcription PCR (qRT-PCR). […] APEC O78 was grown in the presence of 100 µM of each compound in a 96-well plate at 37° C. for 10 h. APEC O78 culture treated with 1 µL of 100% DMSO was used as […]. Total RNA was extracted from duplicate wells for each compound (200 µL) using a miRNeasy Mini Kit (Qiagen). RNA quality and quantity was determined by nanodrop 2000 C spectrophotometer (Thermo scientific). Traces of DNA was removed using Genomic DNA removal mix (Qiagen). Approximately, 5 µg of purified RNA was used to synthesize cDNA using the Qiagen RT^2 First Strand Kit (Qiagen). The qRT-PCR was performed using SensiMix™ SYBER® Hi-Rox qPCR Master Mix (Bioline) according to manufacturer instructions in a realplex^2 mastercycler (Eppendorf) with 55° C. annealing temperature. Gene-specific primers were designed using PrimerQuest Tool and obtained from integrated DNA technologies (IDT). The data were normalized to the house-keeping gene, glyceraldehyde-3-phosphate dehydrogenase (GAPDH). The relative fold change was calculated using the ΔΔCt method. Three independent experiments were conducted.

[8] = tested on: AI-2 activity of APEC O18; assay: AI-2 bioluminescence indicator assay (V. harveyi BB170); conditions: Escherichia coli, read-out: Inhibition % of AI-2 activity, APEC O18, 100 µM
[9] = tested on: Rif^r APEC O78; assay: In vivo screening of quorum sensing inhibitors in APEC infected broiler chickens
[10] = tested on: AI-2 activity of APEC O2; assay: AI-2 bioluminescence indicator assay (V. harveyi BB170); conditions: Escherichia coli, read-out: Inhibition % of AI-2 activity
[11] = tested on: AI-2 activity of APEC O1; assay: as above; conditions: Escherichia coli, read-out: Inhibition % of AI-2 activity, APEC O1, 100 µM

In the case of `O=[N+]([O-])c1cccc(S(=O)(=O)Nc2ccc(Br)cc2)c1` [C6, N-(4-bromophenyl)-3-nitrobenzenesulfonamide], the “toxicity (LDH)” value [1] is reported as 27%, the inhibition at 100 µM [2] is reported as 60% and the inhibition at 100 µM [3] is reported as no less than 75%. For the same compound, the “clearance of intracellular APEC” value [4] was 100%, the “reduction of intracellular survival” value ([4]; vs DMSO) was 3.3 logs and the larval death [5] was “no larval death”. The inhibition at 100 µM [6] was 92%, the “expression of cheW” value [7] was “down-regulated” and the “expression of csrA” value [7] was “down-regulated”. The “expression of fliP” value [7] was “down-regulated”, the expression of fpr [7] was “down-regulated” and the “expression of murD” value [7] was “down-regulated”. For the same compound, the inhibition at 100 µM [8] was no less than 75%, the “reduction in chicken mortality” value ([9]; DMSO control mortality normalized to 100%) was “did not reduce” and the “average lesion score reduction” value ([9]; liver, heart, lung and airsac, vs DMSO) was 0.7-1.3. For the same compound, the “Mortality rate (%)” value ([9]; oral gavage once a day, day 4 to day 8, DMSO control 66.7%) was 66.7%, the “Reduction in APEC lesions severity, Air-sacs (%)” value ([9]; vs DMSO treated control) was 53.3% and the “Reduction in APEC lesions severity, Heart (%)” value ([9]; vs DMSO treated control) was 43.8%. The “Reduction in APEC lesions severity, Liver (%)” value ([9]; vs DMSO treated control) was 54.5%, the “Reduction in APEC lesions severity, Lung (%)” value ([9]; vs DMSO treated control) was 66.7% and the inhibition at 100 µM [10] was 93%. The inhibition at 100 µM [11] was no less than 75%.
